Test results as given in patent US20100063026A1, “ANTIBACTERIAL QUINOLINE DERIVATIVES” (priority 2007, published 2010).
Converted amounts (≈) assume the structure as drawn.

Experiments:
[1] = test system: Staphylococcus aureus (ATCC29213); test: Microtitre plate IC90 determination against non-mycobacterial strains: S. aureus; assay type: cell-based; details: 90% inhibitory concentration for bacterial growth, 37° C., resazurin fluorescence; for IC90: Staphylococcus aureus, ATCC29213, 24 h, read-out: IC90 STA 1 B29213; for IC90 STA 1 B29213: 24 hours
Method: (§1) The bacteria used in this study were grown overnight in flasks containing 100 ml Mueller-Hinton Broth (Becton Dickinson-cat. no. 275730) in sterile de-ionized water, with shaking, at 37° C. Stocks (0.5 ml/tube) were stored at -70° C. until use. Bacteria titrations were performed in microtiter plates to detect the TCID50, in which the TCID50 represents the dilution that gives rise to bacterial growth in 50% of inoculated cultures. In general, an inoculum level of approximately 100 TCID50 was used for susceptibility testing. […] Therefore resazurin (0.6 mg/ml) was added in a volume of 20 μl to all wells 3 hours after inoculation, and the plates were re-incubated overnight. A change in colour from blue to pink indicated the growth of bacteria.

M. smegmatis ATCC607 = test: In-vitro anti-bacterial activity against strain M. smegmatis ATCC607; details: for IC90 MSM 1 ATCC607: 90% inhibitory concentration for bacterial growth, 48 hours, 37° C., Alamar Blue fluorescence; for IC90: Mycolicibacterium smegmatis, ATCC607, 48 h, read-out: IC90 MSM 1 ATCC607, 90% inhibitory concentration for bacterial growth, 37° C., Alamar Blue fluorescence
Method: Flat-bottom, sterile 96-well plastic microtiter plates were filled with 180 μl of sterile deionized water, supplemented with 0.25% BSA. Subsequently, stock solutions (7.8× final test concentration) of compounds were added in 45 μl volumes to a series of duplicate wells in column 2 so as to allow evaluation of their effects on bacterial growth. Serial five-fold dilutions (45 μl in 180 μl) were made directly in the microtiter plates from column 2 to 11 using a customised robot system (Zymark Corp., Hopkinton, Mass.). Pipette tips were changed after every 3 dilutions to minimize pipetting errors with high hydrophobic compounds. Untreated control samples with (column 1) and without (column 12) inoculum were included in each microtiter plate. Approximately 250 CFU per well of bacteria inoculum, in a volume of 100 μl in 2.8× Mueller-Hinton broth medium, was added to the rows A to H, except column 12. The same volume of broth medium without inoculum was added to column 12 in row A to H. The cultures were incubated at 37° C. for 48 hours in a humidified 5% CO2 atmosphere (incubator with open air valve and continuous ventilation). At the end of incubation, two days after inoculation, the bacterial growth was quantitated fluorometrically. Therefore Alamar Blue (10×) was added to all wells in a volume of 20 μl and plates were incubated for another 2 hours at 50° C.
The fluorescence was read in a computer-controlled fluorometer (Cytofluor, Biosearch) at an excitation wavelength of 530 nm and an emission wavelength of 590 nm (gain 30). The percentage growth inhibition achieved by the compounds was calculated according to standard methods and expressed as IC90 (μg/ml) which defines the 90% inhibitory concentration for bacterial growth.

[2] = test system: Streptococcus pneumoniae (ATCC6305); test: Microtitre plate IC90 determination against non-mycobacterial strains: S. pneumoniae; assay type: cell-based; details: 90% inhibitory concentration for bacterial growth, 37° C., resazurin fluorescence; for IC90: Streptococcus pneumoniae, ATCC6305, 24 h, read-out: IC90 SPN 1 6305; for IC90 SPN 1 6305: 24 hours
Method: as §1

| Compound | IC90 [1] [µg/mL] | IC90 MSM 1 ATCC607 (M. smegmatis ATCC607) [µg/mL] | IC90 [2] [µg/mL] | IC90 (M. smegmatis ATCC607) [µg/mL] | IC90 STA 1 B29213 [1] [µg/mL] | IC90 SPN 1 6305 [2] [µg/mL] |
| --- | --- | --- | --- | --- | --- | --- |
| COc1nc2ccc(Br)cc2cc1C(c1ccccc1)C(O)(CCCCNC1CC2CCC1C2)c1ccc2ccccc2c1 (centres unmarked) [Compound 39] | 1.8 (≈ 2.77 µM) | 1.8 (≈ 2.77 µM) | 0.4 (≈ 0.616 µM) | – | – | – |
| COc1nc2ccc(Br)cc2cc1C(c1ccccc1)C(O)(CCCCN(C)CCN(C)C)c1ccccc1 (single isomer, unassigned) [Compound 51] | 9.4 (≈ 15.9 µM) | – | 9.4 (≈ 15.9 µM) | 9.4 (≈ 15.9 µM) | – | – |
| COc1nc2ccc(Br)cc2cc1C(c1ccccc1)C(O)(CCCCN1CC2CC1CN2Cc1ccccc1)c1ccccc1 (single isomer, unassigned) [Compound 48] | 2.1 (≈ 3.1 µM) | – | 0.5 (≈ 0.739 µM) | 2.4 (≈ 3.55 µM) | – | – |
| COc1nc2ccc(Br)cc2cc1C(c1ccccc1)C(O)(CCCCN1CC2CC1CN2Cc1ccccc1)c1ccc2ccccc2c1 (single isomer, unassigned) [Compound 21] | – | 5.8 (≈ 7.98 µM) | – | – | 2.3 (≈ 3.16 µM) | 0.6 (≈ 0.826 µM) |
| COc1nc2ccc(Br)cc2cc1C(c1ccccc1)C(O)(CCCCN(C)CCc1ccccn1)c1ccccc1 (centres unmarked) [Compound 6] | 2 (≈ 3.2 µM) | – | 2.2 (≈ 3.52 µM) | 2 (≈ 3.2 µM) | – | – |
| COc1nc2ccc(Br)cc2cc1C(c1ccccc1)C(O)(CCCCN1CCN(C2CCN(Cc3ccccc3)C2)CC1)c1ccc2ccccc2c1 (single isomer, unassigned) [Compound 30b] | – | 31 (≈ 39.5 µM) | – | – | 62 (≈ 79.1 µM) | 31 (≈ 39.5 µM) |
| COc1nc2ccc(Br)cc2cc1C(c1ccccc1)C(O)(CCCCN1CC2CC1CN2Cc1ccccc1)CCCc1ccccc1 (single isomer, unassigned) [Compound 15] | – | 4.0 (≈ 5.56 µM) | – | – | 11.4 (≈ 15.9 µM) | 2.6 (≈ 3.62 µM) |
| COc1nc2ccc(Br)cc2cc1C(c1ccccc1)C(O)(CCCCN1CCCN(C)CC1)c1ccc2ccccc2c1 (single isomer, unassigned) [Compound 34] | 2.1 (≈ 3.22 µM) | – | – | 2.1 (≈ 3.22 µM) | – | – |
| COc1nc2ccc(Br)cc2cc1C(c1ccccc1)C(O)(CCCCN1CCN(C(C)=O)CC1)c1ccccc1 (single isomer, unassigned) [Compound 3] | 61.7 (≈ 100 µM) | – | 9.8 (≈ 15.9 µM) | 4.9 (≈ 7.95 µM) | – | – |
| COc1nc2ccc(Br)cc2cc1C(c1ccccc1)C(O)(CCCCCN1CCCN(C)CC1)c1ccc2ccccc2c1 (single isomer, unassigned) [Compound 54] | 2.1 (≈ 3.15 µM) | – | – | 2.1 (≈ 3.15 µM) | – | 2.1 (≈ 3.15 µM) |
| COc1nc2ccc(Br)cc2cc1C(c1ccccc1)C(O)(CCCCN1CC2CC1CN2C1CCN(C)CC1)c1ccc2ccccc2c1 (single isomer, unassigned) [Compound 64] | – | 1.3 (≈ 1.77 µM) | – | – | 2.3 (≈ 3.13 µM) | – |
| COc1nc2ccc(Br)cc2cc1C(c1ccccc1)C(O)(CCCCN1CC2CC1CN2CC(C)C)c1ccc2ccccc2c1 (single isomer, unassigned) [Compound 53] | 2.2 (≈ 3.18 µM) | – | 0.1 (≈ 0.144 µM) | 1.6 (≈ 2.31 µM) | – | – |
| COc1nc2ccc(Br)cc2cc1C(c1ccccc1)C(O)(CCCCN1CCC1)c1ccccc1 (single isomer, unassigned) [Compound 42] | – | 2.2 (≈ 4.03 µM) | – | – | 8.6 (≈ 15.8 µM) | 4.3 (≈ 7.88 µM) |
| COc1nc2ccc(Br)cc2cc1C(c1ccccc1)C(O)(CCCCNCCN(C)C)c1ccccc1 (single isomer, unassigned) [Compound 66] | – | – | – | – | 1.8 (≈ 3.12 µM) | – |
| COc1nc2ccc(Br)cc2cc1C(c1ccccc1)C(O)(CCCCN1CC2CC1CN2Cc1ccccc1)c1ccc2ccccc2c1 (centres unmarked) [Compound 22] | – | – | – | 0.6 (≈ 0.826 µM) | 9.2 (≈ 12.7 µM) | 2.9 (≈ 3.99 µM) |
| COc1nc2ccc(Br)cc2cc1C(c1ccccc1)C(O)(CCCCNC1CC2CCC1C2)c1ccc2ccccc2c1 (centres unmarked) [Compound 40] | – | 0.4 (≈ 0.616 µM) | – | – | 1.6 (≈ 2.46 µM) | 0.5 (≈ 0.77 µM) |
| COc1nc2ccc(Br)cc2cc1C(c1ccc(Cl)cc1)C(O)(CCCCN1CC2CC1CN2Cc1ccccc1)c1ccc2ccccc2c1 (single isomer, unassigned) [Compound 37] | – | 2.1 (≈ 2.76 µM) | – | – | 2.7 (≈ 3.55 µM) | 0.5 (≈ 0.657 µM) |
| COc1nc2ccc(Br)cc2cc1C(c1ccccc1)C(O)(CCCCN(C)C1CCN(C)CC1)c1ccccc1 (single isomer, unassigned) [Compound 5] | – | 2.0 (≈ 3.24 µM) | – | – | 7.8 (≈ 12.6 µM) | 2.0 (≈ 3.24 µM) |
| COc1nc2ccc(Br)cc2cc1C(c1ccccc1)C(O)(CCCCN1CCCN(C)CC1)c1ccc2ccccc2c1 (centres unmarked) [Compound 35c] | – | 1.5 (≈ 2.3 µM) | – | – | 2.1 (≈ 3.22 µM) | 0.4 (≈ 0.613 µM) |
